{"source": "patent US5656743A", "about": "“Oligonucleotide modulation of cell growth” (priority 1994, dated 1997)", "key": {"[1]": {"test_system": "HeLa S3 cells (human epithelioid cervix carcinoma)", "experiment": "Cell growth of HeLa cells by counting attached cells after oligonucleotide treatment", "assay_type": "cell-based", "conditions": "for cell growth inhibitory effect: HeLa cells (FIG. 1A), 0.1-0.5 μM oligonucleotide + 10 μg/ml DOTMA, ±SD; for cell growth inhibitory effect / inhibition of cell growth (in words): serum-free, 4 h; for log HeLa cell kill: 2 days after treatment, oligonucleotide complexed with DOTMA 4 h; for inhibition of cell growth (in words): oligonucleotide + 10 μg/ml DOTMA"}, "[2]": {"assay_type": "in vitro ADME", "conditions": "after 24 hours in 10% serum-containing medium", "experimental": "(§1) Phosphorothioate oligonucleotide SEQ ID NO: 9 was labeled with [γ^32 P]ATP by T4 polynucleotide kinass to analyze cellular uptake, efflux and stability in the presence or absence of DOTMA. […] 5-15 fold more of oligonucleotide SEQ ID NO: 9 was associated with the cells in the presence of DOTMA than in its absence. 60% of the oligonucleotide localized to the nuclei after 4 hours treatment in the presence of DOTMA, approximately 50% remained in the cells 20 hours post-treatment. The stability of phosphorothioate oligonucleotides was much greater than the phosphodiester oligonucleotides. Only 40% degradation of the phosphorothioate oligonucleotide was found after 24 hours in 10% serum-containing medium. More than 50% of the phosphodiester oligonucleotide was degraded within 1 hour. DOTMA enhanced the activity of antisense oligonucleotide phosphorothioate."}, "human LOX ascites tumor": {"test_system": "human LOX ascites tumor", "experiment": "Tumor growth inhibition, i.p. LOX ascites tumor in nude mice", "assay_type": "in vivo", "conditions": "complexed with DOTMA", "experimental": "Intraperitoneally (i.p.) transplanted, exponentially growing LOX ascites tumor cells were harvested from nude mice, washed and resuspended in serum-free RPMI medium. A total of 2×10^6 viable cells (determined by trypan blue exclusion) in 0.5 ml RPMI medium were injected i.p. into the homozygous mutant, HSd: Athymic Nude-nu male mice (Sambrook, et al., 1989). Treatment was started 1 day after the i.p. injection of tumor cells and the oligonucleotide in the presence of DOTMA was given i.p. on days 1, 3 and 5. Tumor growth was followed by daily inspection of the animals. The experiments were terminated when the ascite tumors were visible both in controls and treated animals, generally by day 14. All animal experimentation followed the guidelines of the Baylor College of Medicine and New York Academy of Sciences.\nThe tumor growth inhibitory effect of antisense oligonucleotide SEQ ID NO: 9 was studied on i.p. injected LOX tumor cells. […] No tumor growth inhibition or other toxic effects occurred after treatment with PBS alone or DOTMA in PBS (1-10 mg/kg bodyweight)."}, "[3]": {"experiment": "Cellular uptake, efflux and localization of 32P-labeled oligonucleotide", "assay_type": "in vitro ADME", "experimental": "as §1"}, "[4]": {"test_system": "LOX cells (human amelanotic melanoma)", "experiment": "Cell growth of LOX cells by counting attached cells after oligonucleotide treatment", "assay_type": "cell-based", "experimental": "(§2) HeLa S3 (ATCC CCL 2.2, human epithelioid cervix carcinoma) cells were subcultured in Dulbecco's modified Eagle Medium (D-MEM) (GIBCO BRL), supplemented with 10% fetal bovine serum (FBS) (GIBCO BRL) and 1% penicillin-streptomycin liquid (100 000 IU/ml penicillin G sodium, 10 mg/ml streptomycin sulfate in 0.85% saline) (GIBCO BRL). LOX (IMVI, human amelanotic melanoma) cells (provided by Dr. D. J. Dykes, Southern Research Institute, Birmingham, Ala.) were subcultured in RPMI 1640 medium (RPMI) (GIBCO BRL) supplemented with 10% FBS and 1% penicillin-streptomycin liquid. HRCC-SN12A1 (human renal cell carcinoma) cells (established from the ascitic cells of intrarenally transplanted HRCC-bearing nude mouse and provided by Dr. I. J. Fidler, M.D., Anderson Cancer Center, Houston, Tex.)(Naito, etal., 1986) were subcultured in Eagle minimum essential medium (MEM) (GIBCO BRL), supplemented with 10% FBS, vitamins, L-glutamine, sodium pyruvate, non-essential amino acids and 1% penicillin-streptomycin liquid. All cells were negative for mycoplasma infection as determined by a DNA stain (McGarrity, Methods in Enzymology: Cell Culture, Vol 63, p23 (Academic Press, San Diego; 1979); Freshney, Culture of Animal Cells: A Manual of Basic Techniques (Wiley-Liss, NY; 1987).\nTwenty-four hours after plating (1×10^5 cells into 6-well cell culture dishes), the cells growing in monolayer were gently washed once with 5 ml serum-free D-MEM, RPMI and MEM medium for HeLa S3, LOX and HRCC-SN12A1 cells, respectively. Freshly prepared serum-free mediumcontaining 10 μg/ml cationic lipid (DOTMA); Chiang, et al., J. Biol. Chem., 266:18162 (1991); Bennett, et al., J. Liposome Research, in press (1992); were mixed with oligonucleotide and preincubated at 37° C. in a humidified incubator for 15 minutes to allow formation of an oligonucleotide-cationic lipid complex. The oligonucleotide concentrations were between 0.001 and 10 μM, but for the majority of the experiments for HeLa S3 cells 0.1 μM, for LOX cells 0.03-0.05-0.1 μM, and for HRCC cells 0.1 μM concentrations were used. […]\nThe effect of oligonucleotides on cell growth was determined by counting the attached cells in the 6-well plates through a phase contrast inverted microscope (Nikon Diaphot, 10×objective, 10×ocular, 4×magnification extender, total magnification: 400×). The attached cells on 10 randomly chosen fields were counted (10-200 cells/field) and the total cell number was calculated by multiplying the mean cell number by the correction factor (f6-well =6028, f24-well =1258, f10 cm dish =35,670). […] The dead floating cells (viability was determined by […]) were not counted. The cell number in each well was determined before treatment, immediately after treatment, and daily after treatment for 5-7 days. […]"}, "[5]": {"test_system": "HRCC-SN12A1 cells (human renal cell carcinoma)", "experiment": "Cell growth of HRCC-SN12A1 cells by counting attached cells after oligonucleotide treatment", "assay_type": "cell-based", "experimental": "as §2, with “HRCC-SN12A1 (human renal cell carcinoma) cells (established from the ascitic cells of intrarenally transplanted HRCC-bearing nude mouse and provided by Dr. I. J. Fidler, M.D., Anderson Cancer Center, Houston, Tex.)(Naito, etal., 1986) were subcultured in Eagle minimum essential medium (MEM) (GIBCO BRL), supplemented with 10% FBS, vitamins, L-glutamine, sodium pyruvate, non-essential amino acids and 1% penicillin-streptomycin liquid.” left out, “1987). […]” for “1987).”\nThe effect of oligonucleotides on cell growth was determined by counting the attached cells in the 6-well plates through a phase contrast inverted microscope (Nikon Diaphot, 10×objective, 10×ocular, 4×magnification extender, total magnification: 400×). The attached cells on 10 randomly chosen fields were counted (10-200 cells/field) and the total cell number was calculated by multiplying the mean cell number by the correction factor (f6-well =6028, f24-well =1258, f10 cm dish =35,670). […]"}, "[6]": {"test_system": "HeLa and LOX human tumor cell lines", "experiment": "Nuclear aberrations, mitoses and cell growth in HeLa and LOX cells by light and fluorescence microscopy", "assay_type": "cell-based", "conditions": "0.2 or 0.4 μM + DOTMA 4 h", "experimental": "HeLa and LOX human tumor cell lines were analyzed by light and fluorescence microscopy after 4 hours treatment with 0.2 or 0.4 μM antisense (SEQ ID NO: 9) or sense (SEQ ID NO: 16) oligonucleotide with DOTMA. […] Nucleolar unraveling and fragmentation and chromatin alterations were observed. In some LOX cells chromatin was condensed as in prophase arrest. In HeLa cells, chromatin was condensed and compacted. Decreased mitoses correlated with decreased ^3 H-thymidine incorporation. Cell growth decreased 70-80%."}, "[7]": {"test_system": "human tumor cells (HeLa, LOX, SN12A1)", "assay_type": "cell-based", "conditions": "0.1 and 1 μM oligonucleotide + 10 μg/ml DOTMA 4 h; for inhibition of the tumors (in words): FIG. 2 panels A-C"}, "[8]": {"conditions": "32P-labeled phosphorothioate oligonucleotide"}, "[9]": {"conditions": "two days after treatment, DOTMA 4 h serum-free"}}, "note": "“Also recorded” adds a separate entry of the source.", "data": [{"sequence": "TCCCAGTCCC ACCTCCCATC (antisense TCCCAGTCCCACCTCCCATC; chemistry not given here) [SEQ ID NO: 6, p120 antisense oligonucleotide, 3' UTR]", "values": [{"measurement": "cell growth inhibitory effect", "setting": "[1]", "result": "70.7±24.8", "unit": "%"}]}, {"sequence": "CACGCCTCCC GACTCTGCCC (DNA CACGCCTCCCGACTCTGCCC; chemistry not given here) [SEQ ID NO: 15, reference compound]", "values": [{"measurement": "log HeLa cell kill", "setting": "[1]; HeLa cells", "result": 0.2, "unit": "log"}]}, {"sequence": "CACCCGCCTT GGCCTCCCAC (antisense CACCCGCCTTGGCCTCCCAC; chemistry not given here) [SEQ ID NO: 9, p120 antisense oligonucleotide, 3' UTR]", "values": [{"measurement": "degradation", "setting": "[2]", "result": 40, "unit": "%"}, {"measurement": "inhibition of cell growth in vivo", "setting": "human LOX ascites tumor; 0.65 mg/kg bodyweight i.p. days 1, 3, 5", "result": 80, "unit": "%"}, {"measurement": "inhibition of cell growth in vivo", "setting": "human LOX ascites tumor; 6.5 mg/kg bodyweight i.p. days 1, 3, 5", "result": 90, "unit": "%"}, {"measurement": "IC50, tumor growth inhibition in vivo", "setting": "human LOX ascites tumor; i.p. days 1, 3, 5", "result": 0.26, "unit": "mg/kg bodyweight"}, {"measurement": "oligonucleotide associated with the cells, presence versus absence of DOTMA", "setting": "[3]; [8]", "result": "5-15 fold"}, {"measurement": "time of treatment to plateau of cellular uptake", "setting": "[3]; [8]", "result": 1, "unit": "h"}, {"measurement": "oligonucleotide remaining in the cells", "setting": "[3]; 20 hours post-treatment", "result": "approximately 50%"}, {"measurement": "oligonucleotide localized to the nuclei", "setting": "[3]; after 4 hours treatment in the presence of DOTMA", "result": 60, "unit": "%"}, {"measurement": "log cell kill, single treatment", "setting": "[4]; 0.05 μM + DOTMA, one 4 h treatment day 1 after seeding", "result": 1.4, "unit": "log"}, {"measurement": "effect of repeated treatment", "setting": "[4]; 0.05 μM + DOTMA, two 4 h treatments on days 1 and 3", "result": "killed most LOX cells and no recovery was found on day 8"}, {"measurement": "IC50", "setting": "[4]; oligonucleotide + DOTMA 4 h serum-free, two days after treatment (FIG. 4), read-out: IC50, inhibition of cell growth", "result": 10, "unit": "nM"}, {"measurement": "log cell kill", "setting": "[4]; [9]", "result": 1.2, "unit": "log"}, {"measurement": "maximum cytocidal effect (log cell kill)", "setting": "[5]; 4 days after treatment", "result": 1.3, "unit": "log"}, {"measurement": "log cell kill", "setting": "[5]; [9]", "result": 0.7, "unit": "log"}, {"measurement": "cell growth inhibitory effect", "setting": "[1]", "result": "87.6±11.3", "unit": "%"}, {"measurement": "effect of repeated treatment", "setting": "[1]; HeLa cells, 0.1 μM + DOTMA, two 4 h treatments on days 1 and 3", "result": "additive effects"}, {"measurement": "log HeLa cell kill", "setting": "[1]; HeLa cells", "result": 0.7, "unit": "log"}, {"measurement": "inhibition of cell growth in complete medium", "setting": "[1]; HeLa cells, DOTMA-mediated treatment in complete (10% FBS) medium, compared to serum-free (FIG. 1C)", "result": "very slight"}, {"measurement": "inhibition of cell growth (in words)", "setting": "[1]; HeLa cells", "result": "most consistent and greatest inhibition of cell growth; also recorded: inhibitory activity"}, {"measurement": "IC50", "setting": "[1]; HeLa cells, oligonucleotide + DOTMA 4 h serum-free, two days after treatment (FIG. 4), read-out: IC50, inhibition of cell growth", "result": 20, "unit": "nM"}, {"measurement": "decrease of cell growth", "setting": "[6]", "result": "70-80%"}, {"measurement": "decrease of mitotic cells", "setting": "[6]; at 8 to 72 hours post-treatment", "result": 70, "unit": "%"}, {"measurement": "decrease of mitotic cells", "setting": "[6]; at 4 hours", "result": 50, "unit": "%"}, {"measurement": "inhibition of the tumors (in words)", "setting": "[7]", "result": "marked inhibition"}, {"measurement": "log-cell kill", "setting": "[7]; especially 3-4 days after treatment", "result": "0.5 to 1.5", "unit": "log"}]}, {"sequence": "GTGGGAGGCC AAGGCGGGTG (sense GTGGGAGGCCAAGGCGGGTG; chemistry not given here) [SEQ ID NO: 16, reference compound]", "values": [{"measurement": "inhibition of cell growth (in words)", "setting": "[1]; HeLa cells", "result": "No inhibitory effect"}]}, {"sequence": "CACCCGCCTT GGCCTCCCAG (antisense CACCCGCCTTGGCCTCCCAG; chemistry not given here) [SEQ ID NO: 14, p120 antisense oligonucleotide, 3' UTR]", "values": [{"measurement": "inhibition of cell growth (in words)", "setting": "[1]; HeLa cells", "result": "inhibitory activity"}, {"measurement": "inhibition of the tumors (in words)", "setting": "[7]", "result": "marked inhibition"}]}]}
